Paper PMC6199744, “Development of Chemical Proteomics for the Folateome and Analysis of the Kinetoplastid Folateome” (ACS Infectious Diseases, 2018)
Like-named read-outs stand apart in the source and are kept apart here.

Tests used:
Type in all cases: binding
[1] = molecular target: T1, HeLa cell extract proteins (Homo sapiens, UniProt O00165); details: captured protein HAX1; HeLa
T1 construct: endogenous in cells; host or cells: HeLa cell extract

[2] = molecular target: T2, HeLa cell extract proteins (Homo sapiens, UniProt P46782); details: protein RPS5; HeLa
T2 construct: endogenous in cells; host or cells: HeLa cell extract

[3] = molecular target: T3, HeLa cell extract proteins (Homo sapiens, UniProt Q00653); details: protein NFKB2; HeLa
T3 construct: endogenous in cells; host or cells: HeLa cell extract
T3 sequence (Q00653 1-900): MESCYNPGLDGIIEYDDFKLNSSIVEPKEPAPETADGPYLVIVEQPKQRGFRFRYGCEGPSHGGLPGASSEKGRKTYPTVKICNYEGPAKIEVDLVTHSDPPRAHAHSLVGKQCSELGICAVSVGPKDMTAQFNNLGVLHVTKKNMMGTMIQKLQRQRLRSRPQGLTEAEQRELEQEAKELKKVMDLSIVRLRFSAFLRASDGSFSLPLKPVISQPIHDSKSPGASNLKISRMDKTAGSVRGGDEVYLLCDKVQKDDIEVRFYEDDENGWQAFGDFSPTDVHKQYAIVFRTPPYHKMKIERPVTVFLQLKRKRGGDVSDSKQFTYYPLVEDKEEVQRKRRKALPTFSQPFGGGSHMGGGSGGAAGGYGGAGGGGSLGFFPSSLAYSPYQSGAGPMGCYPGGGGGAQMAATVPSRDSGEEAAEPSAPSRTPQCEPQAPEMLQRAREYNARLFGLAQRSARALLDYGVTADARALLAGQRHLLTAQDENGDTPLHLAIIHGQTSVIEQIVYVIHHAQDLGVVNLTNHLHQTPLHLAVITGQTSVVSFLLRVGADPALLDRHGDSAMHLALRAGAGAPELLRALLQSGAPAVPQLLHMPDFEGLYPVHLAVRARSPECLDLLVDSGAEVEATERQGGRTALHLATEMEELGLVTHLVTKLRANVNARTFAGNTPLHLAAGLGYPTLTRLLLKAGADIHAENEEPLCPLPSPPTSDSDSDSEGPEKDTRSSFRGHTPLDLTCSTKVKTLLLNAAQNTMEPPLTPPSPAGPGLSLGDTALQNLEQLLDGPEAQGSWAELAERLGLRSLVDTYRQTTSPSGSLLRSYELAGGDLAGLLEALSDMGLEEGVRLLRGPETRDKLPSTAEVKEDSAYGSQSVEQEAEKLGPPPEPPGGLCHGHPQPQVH

[4] = molecular target: T4, HeLa cell extract proteins (Homo sapiens, UniProt Q09666); details: HeLa; protein AHNAK
T4 construct: endogenous in cells; host or cells: HeLa cell extract

[5] = molecular target: T5, HeLa cell extract proteins (Homo sapiens, UniProt Q5XKP0); details: captured protein C19ORF70; HeLa
T5 construct: endogenous in cells; host or cells: HeLa cell extract
T5 sequence (Q5XKP0 1-118): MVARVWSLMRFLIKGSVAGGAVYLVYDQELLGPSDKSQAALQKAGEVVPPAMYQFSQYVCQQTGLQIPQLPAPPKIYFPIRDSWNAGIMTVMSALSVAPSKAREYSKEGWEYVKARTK

[6] = molecular target: T6, HeLa cell extract proteins (Homo sapiens, UniProt O00462)
T6 construct: endogenous in cells; host or cells: HeLa cell extract
T6 sequence (O00462 18-879): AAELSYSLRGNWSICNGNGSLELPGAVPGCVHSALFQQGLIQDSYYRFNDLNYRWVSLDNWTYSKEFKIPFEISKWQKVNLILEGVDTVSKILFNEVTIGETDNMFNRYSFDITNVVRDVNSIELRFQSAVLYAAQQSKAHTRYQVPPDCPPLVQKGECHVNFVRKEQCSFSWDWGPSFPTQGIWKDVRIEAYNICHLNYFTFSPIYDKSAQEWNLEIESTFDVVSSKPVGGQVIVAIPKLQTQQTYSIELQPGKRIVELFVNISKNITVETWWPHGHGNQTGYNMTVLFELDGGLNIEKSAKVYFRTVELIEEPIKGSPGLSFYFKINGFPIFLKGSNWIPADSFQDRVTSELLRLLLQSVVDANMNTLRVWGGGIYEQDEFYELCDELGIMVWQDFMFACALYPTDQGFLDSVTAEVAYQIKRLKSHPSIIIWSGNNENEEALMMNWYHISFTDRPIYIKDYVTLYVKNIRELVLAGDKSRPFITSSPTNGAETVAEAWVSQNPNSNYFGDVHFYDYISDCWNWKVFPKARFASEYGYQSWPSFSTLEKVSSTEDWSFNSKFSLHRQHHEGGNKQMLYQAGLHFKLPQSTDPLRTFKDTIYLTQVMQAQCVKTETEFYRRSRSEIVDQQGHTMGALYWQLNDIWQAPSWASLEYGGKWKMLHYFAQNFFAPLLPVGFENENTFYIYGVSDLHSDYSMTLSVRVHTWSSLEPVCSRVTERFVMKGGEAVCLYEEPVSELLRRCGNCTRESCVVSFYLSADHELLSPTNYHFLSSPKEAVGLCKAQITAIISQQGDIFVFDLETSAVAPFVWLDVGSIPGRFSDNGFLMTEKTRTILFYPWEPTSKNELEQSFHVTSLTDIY

[7] = molecular target: T7, HeLa cell extract proteins (Homo sapiens, UniProt O75131)
T7 construct: endogenous in cells; host or cells: HeLa cell extract

[8] = molecular target: T8, HeLa cell extract proteins (Homo sapiens, UniProt Q13535)
T8 construct: endogenous in cells; host or cells: HeLa cell extract

[9] = molecular target: T9, HeLa cell extract proteins (Homo sapiens, UniProt Q9BSE5)
T9 construct: endogenous in cells; host or cells: HeLa cell extract
T9 sequence (Q9BSE5 36-352): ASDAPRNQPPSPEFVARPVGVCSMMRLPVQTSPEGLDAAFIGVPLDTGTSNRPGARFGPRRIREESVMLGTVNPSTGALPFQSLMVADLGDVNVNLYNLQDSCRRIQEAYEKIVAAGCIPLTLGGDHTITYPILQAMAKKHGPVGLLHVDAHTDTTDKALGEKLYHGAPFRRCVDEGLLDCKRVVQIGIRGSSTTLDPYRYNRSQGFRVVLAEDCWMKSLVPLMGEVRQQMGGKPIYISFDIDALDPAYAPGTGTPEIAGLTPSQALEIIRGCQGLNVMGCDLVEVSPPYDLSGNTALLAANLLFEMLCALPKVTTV

[10] = molecular target: T10, HeLa cell extract proteins (Homo sapiens, UniProt Q9UBQ5)
T10 construct: endogenous in cells; host or cells: HeLa cell extract

[11] = HeLa, protein MANBA (BETA-MANNOSIDASE PRECURSOR)

T10 sequence (Q9UBQ5 whole entry): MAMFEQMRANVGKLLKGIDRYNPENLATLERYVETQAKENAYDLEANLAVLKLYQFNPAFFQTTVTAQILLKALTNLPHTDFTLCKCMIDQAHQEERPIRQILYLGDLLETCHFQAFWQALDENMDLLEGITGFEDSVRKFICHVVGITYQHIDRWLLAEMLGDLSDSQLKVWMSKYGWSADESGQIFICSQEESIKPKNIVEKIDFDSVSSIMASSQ
T7 sequence (O75131 whole entry): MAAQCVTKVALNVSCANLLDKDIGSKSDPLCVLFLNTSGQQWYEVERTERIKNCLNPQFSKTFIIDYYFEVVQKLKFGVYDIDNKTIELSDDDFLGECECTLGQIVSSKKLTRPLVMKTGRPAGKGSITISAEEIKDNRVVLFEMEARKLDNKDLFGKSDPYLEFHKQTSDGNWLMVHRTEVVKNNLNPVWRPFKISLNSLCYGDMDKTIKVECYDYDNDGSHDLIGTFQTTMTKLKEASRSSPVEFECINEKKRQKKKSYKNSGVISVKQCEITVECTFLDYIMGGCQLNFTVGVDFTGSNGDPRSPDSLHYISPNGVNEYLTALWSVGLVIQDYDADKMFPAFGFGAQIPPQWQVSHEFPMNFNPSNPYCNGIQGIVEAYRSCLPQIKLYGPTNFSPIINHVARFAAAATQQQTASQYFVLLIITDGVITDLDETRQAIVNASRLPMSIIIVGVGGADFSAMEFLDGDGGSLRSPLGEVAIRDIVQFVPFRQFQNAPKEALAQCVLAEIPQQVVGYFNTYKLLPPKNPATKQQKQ
T1 sequence (O00165 whole entry): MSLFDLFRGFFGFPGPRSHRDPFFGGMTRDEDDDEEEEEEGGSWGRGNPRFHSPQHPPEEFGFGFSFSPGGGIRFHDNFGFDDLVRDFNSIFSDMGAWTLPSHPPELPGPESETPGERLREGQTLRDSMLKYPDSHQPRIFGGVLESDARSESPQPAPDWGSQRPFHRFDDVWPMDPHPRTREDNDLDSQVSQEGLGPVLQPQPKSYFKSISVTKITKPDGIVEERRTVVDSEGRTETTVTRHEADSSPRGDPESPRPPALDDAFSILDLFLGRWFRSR
T8 sequence (Q13535 whole entry): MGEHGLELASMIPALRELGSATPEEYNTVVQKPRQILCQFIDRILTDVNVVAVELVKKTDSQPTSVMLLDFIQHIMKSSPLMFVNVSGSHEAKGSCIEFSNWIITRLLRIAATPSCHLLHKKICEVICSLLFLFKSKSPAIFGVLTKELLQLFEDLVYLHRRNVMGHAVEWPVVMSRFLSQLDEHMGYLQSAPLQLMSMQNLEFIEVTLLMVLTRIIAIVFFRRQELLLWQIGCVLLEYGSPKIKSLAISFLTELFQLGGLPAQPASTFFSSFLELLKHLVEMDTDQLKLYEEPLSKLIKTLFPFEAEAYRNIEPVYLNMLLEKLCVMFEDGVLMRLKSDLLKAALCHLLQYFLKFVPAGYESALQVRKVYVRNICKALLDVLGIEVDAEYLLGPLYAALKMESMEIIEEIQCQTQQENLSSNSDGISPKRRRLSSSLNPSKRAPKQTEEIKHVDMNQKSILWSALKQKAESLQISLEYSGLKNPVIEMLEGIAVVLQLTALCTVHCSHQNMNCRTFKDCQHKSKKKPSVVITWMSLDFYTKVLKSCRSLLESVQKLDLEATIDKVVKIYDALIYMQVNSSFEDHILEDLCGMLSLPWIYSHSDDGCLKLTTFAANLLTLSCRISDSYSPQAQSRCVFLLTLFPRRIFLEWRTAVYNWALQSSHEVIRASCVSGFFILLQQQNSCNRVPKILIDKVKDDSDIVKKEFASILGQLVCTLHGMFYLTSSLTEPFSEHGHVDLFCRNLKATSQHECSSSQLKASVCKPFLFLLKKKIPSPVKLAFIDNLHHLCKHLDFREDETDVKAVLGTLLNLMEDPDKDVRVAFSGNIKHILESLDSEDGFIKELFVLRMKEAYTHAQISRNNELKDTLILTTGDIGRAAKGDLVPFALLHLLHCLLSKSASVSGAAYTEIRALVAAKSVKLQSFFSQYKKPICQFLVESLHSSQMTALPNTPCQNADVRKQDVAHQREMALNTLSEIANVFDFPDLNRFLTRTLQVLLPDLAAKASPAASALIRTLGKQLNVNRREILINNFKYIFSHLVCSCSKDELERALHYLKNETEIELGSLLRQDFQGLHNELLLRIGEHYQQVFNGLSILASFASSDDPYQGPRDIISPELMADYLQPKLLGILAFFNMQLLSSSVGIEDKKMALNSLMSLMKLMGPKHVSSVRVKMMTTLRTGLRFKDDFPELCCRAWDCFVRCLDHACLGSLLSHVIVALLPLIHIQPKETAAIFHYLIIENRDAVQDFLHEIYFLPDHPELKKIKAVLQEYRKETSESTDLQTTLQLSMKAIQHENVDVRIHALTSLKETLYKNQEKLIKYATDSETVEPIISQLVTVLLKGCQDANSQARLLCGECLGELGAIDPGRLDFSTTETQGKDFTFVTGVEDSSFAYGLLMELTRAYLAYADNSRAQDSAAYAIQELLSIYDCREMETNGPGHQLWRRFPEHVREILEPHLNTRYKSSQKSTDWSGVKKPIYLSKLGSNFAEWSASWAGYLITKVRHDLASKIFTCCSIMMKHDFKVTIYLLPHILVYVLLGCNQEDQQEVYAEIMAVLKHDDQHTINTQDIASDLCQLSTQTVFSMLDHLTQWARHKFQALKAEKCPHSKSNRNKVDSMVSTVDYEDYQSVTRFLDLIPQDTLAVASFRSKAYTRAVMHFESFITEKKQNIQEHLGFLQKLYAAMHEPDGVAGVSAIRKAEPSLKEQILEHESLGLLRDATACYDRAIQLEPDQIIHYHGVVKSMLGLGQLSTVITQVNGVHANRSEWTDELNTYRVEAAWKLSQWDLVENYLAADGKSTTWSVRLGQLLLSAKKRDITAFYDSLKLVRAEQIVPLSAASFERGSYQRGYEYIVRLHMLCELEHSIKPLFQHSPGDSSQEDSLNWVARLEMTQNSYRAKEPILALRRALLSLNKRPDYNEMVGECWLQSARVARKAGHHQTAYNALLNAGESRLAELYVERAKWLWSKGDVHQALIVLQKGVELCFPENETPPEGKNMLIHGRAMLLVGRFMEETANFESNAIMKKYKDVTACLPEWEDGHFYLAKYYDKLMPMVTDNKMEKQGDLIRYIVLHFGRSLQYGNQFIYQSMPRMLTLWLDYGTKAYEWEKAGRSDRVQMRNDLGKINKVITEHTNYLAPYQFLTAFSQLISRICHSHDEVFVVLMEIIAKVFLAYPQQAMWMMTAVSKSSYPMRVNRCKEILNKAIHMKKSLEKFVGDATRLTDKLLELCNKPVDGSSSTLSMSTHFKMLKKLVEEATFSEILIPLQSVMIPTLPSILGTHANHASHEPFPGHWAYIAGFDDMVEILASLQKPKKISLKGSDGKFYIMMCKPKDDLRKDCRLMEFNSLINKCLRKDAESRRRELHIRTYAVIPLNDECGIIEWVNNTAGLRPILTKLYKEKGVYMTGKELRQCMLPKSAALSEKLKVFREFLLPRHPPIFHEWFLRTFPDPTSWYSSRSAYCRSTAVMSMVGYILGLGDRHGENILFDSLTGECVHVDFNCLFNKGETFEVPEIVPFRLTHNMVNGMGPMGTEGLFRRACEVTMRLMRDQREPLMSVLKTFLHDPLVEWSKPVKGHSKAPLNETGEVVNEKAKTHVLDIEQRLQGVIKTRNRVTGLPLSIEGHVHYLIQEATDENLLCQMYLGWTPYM

Row | SMILES | fold changes relative to vehicle control [1] | fold changes relative to vehicle control [2] | fold changes relative to vehicle control [3] | fold changes relative to vehicle control [4] | fold changes relative to vehicle control [5] | fold changes relative to vehicle control ([7]; HeLa, protein CPNE3) | fold changes relative to vehicle control ([8]; protein ATR, HeLa) | fold changes relative to vehicle control ([9]; protein AGMAT, HeLa) | fold changes relative to vehicle control ([10]; protein EIF3K, HeLa) | further results
1 | Nc1nc2cccc(-c3ccccc3)c2n1Cc1ccc(Cl)c(Cl)c1 [compound 3] | 1.13 | 1.01 | 0.9 | 0.86 | 1.13 |  |  |  |  | 
2 | CCCCCCOc1ccc(Cc2cnc(N)nc2N)cc1 [compound 1] | 0.92 | 1.04 | 0.9 | 0.88 | 1.16 |  |  |  |  | 
3 | NCCCNc1ccc(C(=O)NC(CCC(=O)O)C(=O)O)cc1 (centres unmarked) [compound 7] |  |  |  |  |  | 0.85 | 0.54 | 0.93 | 1.1 | fold changes relative to vehicle control [6, 11]: 0.91
4 | CCCCCCOc1cccc(Cc2cnc(N)nc2N)c1 [compound 2] | 1.1 | 1.1 | 1.24 | 1.1 | 1.14 |  |  |  |  | 
5 | NCCOCCOCC(=O)Nc1nc2ncc(CNc3ccc(C(=O)NC(CCC(=O)O)C(=O)O)cc3)nc2c(=O)[nH]1 (centres unmarked) [compound 6] |  |  |  |  |  | 0.91 | 0.69 | 0.97 | 1.06 | fold changes relative to vehicle control [6, 11]: 0.71
6 | Nc1nc2[nH]cc(CCc3ccc(C(=O)N[C@@H](CCC(=O)O)C(=O)O)cc3)c2c(=O)[nH]1 [PTX, pemetrexed] |  |  |  |  |  |  |  |  |  | fold changes relative to vehicle control [6]: 0.71; fold changes relative to vehicle control [7]: 0.77; fold changes relative to vehicle control [8]: 0.79; fold changes relative to vehicle control [9]: 0.89; fold changes relative to vehicle control [10]: 0.97
7 | Nc1nc2c(c(=O)[nH]1)N(C=O)C(CNc1ccc(C(=O)N[C@@H](CCC(=O)O)C(=O)O)cc1)CN2 (some centres unmarked) [LEU, leucovorin] |  |  |  |  |  | 1.23 | 0.66 | 0.84 | 0.94 | fold changes relative to vehicle control ([6]; HeLa, protein MANBA (BETA-M[…])): 1.01
